Experimental data: patent US9624182B2, “Compounds as lysophosphatidic acid receptor antagonists” (Amira Pharmaceuticals, Inc., priority 2009, dated 2017)
pIC50: −log10 of the molar value.

Molecular target: T1, human LPA1 (Homo sapiens, UniProt Q92633)
T1 construct: the full-length cDNA for human LPA1 was obtained by PCR of the reverse transcription reaction; expressed in transfected cells
Experiment: LPA1 calcium flux assay
Assay type: cell-based
Details: CHO cells expressing human LPA1, stimulated with 10 nM LPA; read-out: HLPA1 Ca Flux IC50
Summary of the method: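 CHO cells stably expressing cloned human LPA1, serum-starved overnight, loaded with Calcium 4 dye 1 h at 37 °C in HBSS/20 mM Hepes with 0.3% fatty-acid-free HSA. Compounds preincubated 30 min at room temperature, then cells stimulated with 10 nM LPA; intracellular Ca2+ read by fluorescence. IC50 from titration curves.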

T1 sequence (Q92633 whole entry): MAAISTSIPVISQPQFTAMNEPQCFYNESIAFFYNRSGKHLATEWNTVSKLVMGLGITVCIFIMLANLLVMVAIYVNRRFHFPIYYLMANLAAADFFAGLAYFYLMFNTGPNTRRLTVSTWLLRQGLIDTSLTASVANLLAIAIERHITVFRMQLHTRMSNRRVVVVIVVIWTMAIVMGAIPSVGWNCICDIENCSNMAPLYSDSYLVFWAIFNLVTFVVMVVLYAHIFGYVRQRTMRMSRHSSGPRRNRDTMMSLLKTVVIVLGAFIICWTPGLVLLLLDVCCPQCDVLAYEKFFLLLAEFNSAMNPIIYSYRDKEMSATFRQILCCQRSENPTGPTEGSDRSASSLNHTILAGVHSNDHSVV

Compound | pIC50
Cc1noc(-c2ccc(-c3cccc(CC4(C(=O)O)CC4)c3)cc2)c1C(O)CCCc1ccccc1 (centres unmarked) [Compound 1-251, 1-{4′-[4-(1-Hydroxy-4-phenyl-butyl)-3-methyl-isoxazol-5-yl]-biphenyl-3-ylmethyl}-cyclopropanecarboxylic acid] | 6.00 to 6.52
Cc1noc(-c2ccc(-c3ccc(C4(C(=O)O)CC4)cc3)cc2)c1C(O)C(=O)NCc1ccccc1 (centres unmarked) [Compound 1-252, 1-{4′-[4-(Benzylcarbamoyl-hydroxy-methyl)-3-methyl-isoxazol-5-yl]-biphenyl-4-yl}-cyclopropanecarboxylic acid] | > 6.52
Cc1noc(-c2ccc(-c3ccc(C4(C(=O)O)CC4)cc3)cc2)c1C(O)C(=O)N[C@H](C)c1ccccc1 (stereo partly drawn) [Compound 1-253, 1-(4′-{4-[Hydroxy-((R)-1-phenyl-ethylcarbamoyl)-methyl]-3-methyl-isoxazol-5-yl}-biphenyl-4-yl)-cyclopropanecarboxylic acid] | > 6.52
CC(=O)NC(CCCc1ccccc1)c1c(C)noc1-c1ccc(-c2ccc(C3(CC(=O)O)CC3)cc2)cc1 (centres unmarked) [Compound 1-256, (1-{4′-[4-(1-Acetylamino-4-phenyl-butyl)-3-methyl-isoxazol-5-yl]-biphenyl-4-yl}-cyclopropyl)-acetic acid] | 4.30 to 6.00
Cc1noc(-c2ccc(-c3ccc(C4(C(=O)O)CC4)cc3)cc2)c1C(CCCc1ccccc1)NS(C)(=O)=O (centres unmarked) [Compound 1-257, 1-{4′-[4-(1-Methanesulfonylamino-4-phenyl-butyl)-3-methyl-isoxazol-5-yl]-biphenyl-4-yl}-cyclopropanecarboxylic acid] | 4.30 to 6.00
Cc1noc(-c2ccc(-c3ccc(C4(C(=O)O)CC4)cc3)cc2)c1C(O)C(=O)N(C)Cc1ccccc1 (centres unmarked) [Compound 1-258, 1-(4′-{4-[(Benzyl-methyl-carbamoyl)-hydroxy-methyl]-3-methyl-isoxazol-5-yl}-biphenyl-4-yl)-cyclopropanecarboxylic acid] | > 6.52
Cc1noc(-c2ccc(-c3ccc(C4(C(=O)O)CC4)cc3)cc2)c1/C=C/S(=O)(=O)Cc1ccccc1 [Compound 1-259, 1-{4′-[3-Methyl-4-((E)-2-phenylmethanesulfonyl-vinyl)-isoxazol-5-yl]-biphenyl-4-yl}-cyclopropanecarboxylic acid] | 4.30 to 6.00
Cc1noc(-c2ccc(-c3ccc(C4(C(=O)O)CC4)cc3)cc2)c1C(O)CCCc1cccnc1 (centres unmarked) [Compound 1-260, 1-{4′-[4-(1-Hydroxy-4-pyridin-3-yl-butyl)-3-methyl-isoxazol-5-yl]-biphenyl-4-yl}-cyclopropanecarboxylic acid] | > 6.52
Cc1noc(-c2ccc(-c3ccc(C4(C(=O)O)CC4)cc3)cc2)c1C(O)CCCc1ccncc1 (centres unmarked) [Compound 1-261, 1-{4′-[4-(1-Hydroxy-4-pyridin-4-yl-butyl)-3-methyl-isoxazol-5-yl]-biphenyl-4-yl}-cyclopropanecarboxylic acid] | > 6.52
Cc1noc(-c2ccc(-c3ccc(CC(=O)O)cc3)cc2)c1C(O)CSCc1cccc(C(F)(F)F)c1 (centres unmarked) [Compound 1-266, (4′-{4-[1-Hydroxy-2-(3-trifluoromethyl-benzylsulfanyl)-ethyl]-3-methyl-isoxazol-5-yl}-biphenyl-4-yl)-acetic acid] | > 6.52
Cc1noc(-c2ccc(-c3ccc(C4(C(=O)O)CC4)cc3)cc2)c1N(C)C(C)CCc1ccccc1 (centres unmarked) [Compound 1-267, 1-(4′-{3-Methyl-4-[methyl-(1-methyl-3-phenyl-propyl)-amino]-isoxazol-5-yl}-biphenyl-4-yl)-cyclopropanecarboxylic acid] | > 6.52
Cc1noc(-c2ccc(-c3ccc(C4(C(=O)O)CC4)cc3)cc2)c1NC1CCc2ccccc2C1 (centres unmarked) [Compound 1-270, 1-{4′-[3-Methyl-4-(1,2,3,4-tetrahydro-naphthalen-2-ylamino)-isoxazol-5-yl]-biphenyl-4-yl}-cyclopropanecarboxylic acid] | > 6.52
Cc1noc(-c2ccc(-c3ccc(C4(C(=O)O)CC4)cc3)cc2)c1NC1Cc2ccccc2C1 [Compound 1-271, 1-{4′-[4-(Indan-2-ylamino)-3-methyl-isoxazol-5-yl]-biphenyl-4-yl}-cyclopropanecarboxylic acid] | 6.00 to 6.52
Cc1noc(-c2ccc(-c3ccc(CC(=O)O)cc3)cc2)c1[C@H](O)CSCc1ccccc1 [Compound 1-272, {4′-[4-((S)-2-Benzylsulfanyl-1-hydroxy-ethyl)-3-methyl-isoxazol-5-yl]-biphenyl-4-yl}-acetic acid] | > 6.52
Cc1noc(-c2ccc(-c3ccc(CCC(=O)O)cc3)cc2)c1[C@H](O)CSCc1ccccc1 [Compound 1-273, 3-{4′-[4-((S)-2-Benzylsulfanyl-1-hydroxy-ethyl)-3-methyl-isoxazol-5-yl]-biphenyl-4-yl}-propionic acid] | > 6.52
Cc1noc(-c2ccc(-c3ccc(CCC(=O)O)cc3)cc2)c1[C@H](O)CSCc1cccc(C(F)(F)F)c1 [Compound 1-274, 3-(4′-{4-[(S)-1-Hydroxy-2-(3-trifluoromethyl-benzylsulfanyl)-ethyl]-3-methyl-isoxazol-5-yl}-biphenyl-4-yl)-propionic acid] | > 6.52

Compound | pIC50
Cc1noc(-c2ccc(-c3ccc(C4(C(=O)O)CC4)cc3)cc2)c1C(O)CSC(C)(C)C (centres unmarked) [Compound 1-275, 1-{4′-[4-(2-tert-Butylsulfanyl-1-hydroxy-ethyl)-3-methyl-isoxazol-5-yl]-biphenyl-4-yl}-cyclopropanecarboxylic acid] | > 6.52
Cc1noc(-c2ccc(-c3ccc(C4(C(=O)O)CC4)cc3)cc2)c1C(O)CSCC(F)(F)F (centres unmarked) [Compound 1-276, 1-(4′-{4-[1-Hydroxy-2-(2,2,2-trifluoro-ethylsulfanyl)-ethyl]-3-methyl-isoxazol-5-yl}-biphenyl-4-yl)-cyclopropanecarboxylic acid] | > 6.52
Cc1noc(-c2ccc(-c3ccc(C4(C(=O)O)CC4)cc3)cc2)c1C(O)CSc1ccccc1 (centres unmarked) [Compound 1-277, 1-{4′-[4-(1-Hydroxy-2-phenylsulfanyl-ethyl)-3-methyl-isoxazol-5-yl]-biphenyl-4-yl}-cyclopropanecarboxylic acid] | > 6.52
Cc1noc(-c2ccc(-c3ccc(C4(C(=O)O)CC4)cc3)cc2)c1NC(C)CSc1ccccc1 (centres unmarked) [Compound 1-278, 1-{4′-[3-Methyl-4-(1-methyl-2-phenylsulfanyl-ethylamino)-isoxazol-5-yl]-biphenyl-4-yl}-cyclopropanecarboxylic acid] | > 6.52
Cc1noc(-c2ccc(-c3ccc(C4(C(=O)O)CC4)cc3)cc2)c1NC(C)COc1ccccc1 (centres unmarked) [Compound 1-279, 1-{4′-[3-Methyl-4-(1-methyl-2-phenoxy-ethylamino)-isoxazol-5-yl]-biphenyl-4-yl}-cyclopropanecarboxylic acid] | > 6.52
Cc1noc(-c2ccc(-c3ccc(C4(C(=O)O)CC4)cc3)cc2)c1Nc1ccc2ccccc2n1 [Compound 1-280, 1-{4′-[3-Methyl-4-(quinolin-2-ylamino)-isoxazol-5-yl]-biphenyl-4-yl}-cyclopropanecarboxylic acid] | > 6.52
Cc1noc(-c2ccc(-c3ccc(C4(C(=O)O)CC4)cc3)cc2)c1NC(C)c1cc2ccccc2s1 (centres unmarked) [Compound 1-284, 1-{4′-[4-(1-Benzo[b]thiophen-2-yl-ethylamino)-3-methyl-isoxazol-5-yl]-biphenyl-4-yl}-cyclopropanecarboxylic acid] | > 6.52
Cc1noc(-c2ccc(-c3ccc(C4(CC(=O)O)CC4)cc3)cc2)c1NC(C)c1cc2ccccc2s1 (centres unmarked) [Compound 1-286, (1-{4′-[4-(1-Benzo[b]thiophen-2-yl-ethylamino)-3-methyl-isoxazol-5-yl]-biphenyl-4-yl}-cyclopropyl)-acetic acid] | > 6.52
Cc1noc(-c2ccc(-c3ccc(C4(CC(=O)O)CC4)cc3)cc2)c1NC(C)CC(C)(C)c1ccccc1 (centres unmarked) [Compound 1-287, (1-{4′-[4-(1,3-Dimethyl-3-phenyl-butylamino)-3-methyl-isoxazol-5-yl]-biphenyl-4-yl}-cyclopropyl)-acetic acid] | > 6.52
Cc1noc(-c2ccc(-c3ccc(C4(C(=O)O)CC4)cc3)cc2)c1NC(C)/C=C/c1ccccc1 (centres unmarked) [Compound 1-288, 1-{4′-[3-Methyl-4-((E)-1-methyl-3-phenyl-allylamino)-isoxazol-5-yl]-biphenyl-4-yl}-cyclopropanecarboxylic acid] | > 6.52
Cc1noc(-c2ccc(-c3ccc(C4(C(=O)O)CC4)cc3)cc2)c1Nc1cccnc1 [Compound 1-290, 1-{4′-[3-Methyl-4-(pyridin-3-ylamino)-isoxazol-5-yl]-biphenyl-4-yl}-cyclopropanecarboxylic acid] | 4.30 to 6.00
COc1cncc(Nc2c(C)noc2-c2ccc(-c3ccc(C4(C(=O)O)CC4)cc3)cc2)c1 [Compound 1-291, 1-{4′-[4-(5-Methoxy-pyridin-3-ylamino)-3-methyl-isoxazol-5-yl]-biphenyl-4-yl}-cyclopropanecarboxylic acid] | > 6.52
Cc1noc(-c2ccc(-c3ccc(C4(C(=O)O)CC4)cc3)cc2)c1NC(=O)c1cccc(Br)c1 [Compound 1-292, 1-{4′-[4-(3-Bromo-benzoylamino)-3-methyl-isoxazol-5-yl]-biphenyl-4-yl}-cyclopropanecarboxylic acid] | 6.00 to 6.52
CCCOc1cccc(Nc2c(C)noc2-c2ccc(-c3ccc(C4(C(=O)O)CC4)cc3)cc2)n1 [Compound 1-293, 1-{4′-[3-Methyl-4-(6-propoxy-pyridin-2-ylamino)-isoxazol-5-yl]-biphenyl-4-yl}-cyclopropanecarboxylic acid] | > 6.52
CCOc1cccc(Nc2c(C)noc2-c2ccc(-c3ccc(C4(C(=O)O)CC4)cc3)cc2)n1 [Compound 1-294, 1-{4′-[4-(6-Ethoxy-pyridin-2-ylamino)-3-methyl-isoxazol-5-yl]-biphenyl-4-yl}-cyclopropanecarboxylic acid] | > 6.52
CCCCOc1cccc(Nc2c(C)noc2-c2ccc(-c3ccc(C4(C(=O)O)CC4)cc3)cc2)n1 [Compound 1-295, 1-{4′-[4-(6-Butoxy-pyridin-2-ylamino)-3-methyl-isoxazol-5-yl]-biphenyl-4-yl}-cyclopropanecarboxylic acid] | > 6.52
